This passage reports EC50 results from PubChem BioAssay AID1224915.

The structures appear in SMILES notation.

This experiment concerns MDA-MB-231 antiproliferation. Briefly: PubChem AID 1224915.

What is called EC50 is the concentration at which the effect is half-maximal. As for `COc1cc(-c2nn(CCN3CCC(N(C)C)CC3)c3ncnc(N)c23)ccc1NC(=O)OC(C)(C)C`, the EC50 is 9 nM.
